# Assay results: ChEMBL document CHEMBL1201862, “PubChem BioAssay data set” (2004)
# Active and inactive are the calls of the source.
# Assays:
# Vero [1] = assay: cells; assay type: functional, cell-based; conditions: Chlorocebus sabaeus
# Vero [2] = assay: cells; assay type: functional; conditions: Chlorocebus sabaeus
# [3] = target: Peroxisome proliferator-activated receptor gamma/Nuclear receptor coactivator 1 (Homo sapiens, UniProt P37231); assay: TR-FRET dose response biochemical High Throughput Screening assay for agonists of the steroid receptor coactivator 1 (SRC-1) recruitment by the peroxisome proliferator-activated receptor gamma (PPAR gamma): non-selective agonists. [Related pubchem assays (depositor defined):AID1300, AID1808, AID504735, AID631]; assay type: protein assay
# [4] = target: Peroxisome proliferator-activated receptor gamma/Nuclear receptor coactivator 3 (Homo sapiens, UniProt P37231); assay: TR-FRET dose response biochemical High Throughput Screening assay for agonists of the steroid receptor coactivator 3 (SRC-3) recruitment by the peroxisome proliferator-activated receptor gamma (PPAR gamma): non-selective agonists. [Related pubchem assays: 1301 (Confirmation screen.), 1048 (Primary screen.)]; assay type: functional
# [5] = target: Peroxisome proliferator-activated receptor gamma/Nuclear receptor coactivator 2 (Homo sapiens, UniProt P37231); assay: TR-FRET dose response biochemical High Throughput Screening assay for agonists of the steroid receptor coactivator 2 (SRC-2) recruitment by the peroxisome proliferator-activated receptor gamma (PPAR gamma): non-selective agonists. [Related pubchem assays: 1297, 1032 ]; assay type: functional
# Cytochrome P450 3A4 = Cytochrome P450 3A4 (Homo sapiens, UniProt P08684);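 further: CYP3A4 tested as one member of a cytochrome P450 panel screen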
# P388/ADR = assay: cells; assay type: functional; conditions: Mus musculus
# SN12K1 = assay: cells; assay type: functional; conditions: Homo sapiens
# P388 = assay: cells; assay type: functional; conditions: Mus musculus
# Aminopeptidase N = target: T1, Aminopeptidase N (Plasmodium falciparum FcB1/Columbia, UniProt O96935); assay: P. falciparum M1AAP inhibitors, biochemical, fluorogenic H-Leu-NHMec substrate, 1536-well (AID 1445); design: species or system Plasmodium falciparum 3D7, 3D7
# T1 sequence (O96935 whole entry): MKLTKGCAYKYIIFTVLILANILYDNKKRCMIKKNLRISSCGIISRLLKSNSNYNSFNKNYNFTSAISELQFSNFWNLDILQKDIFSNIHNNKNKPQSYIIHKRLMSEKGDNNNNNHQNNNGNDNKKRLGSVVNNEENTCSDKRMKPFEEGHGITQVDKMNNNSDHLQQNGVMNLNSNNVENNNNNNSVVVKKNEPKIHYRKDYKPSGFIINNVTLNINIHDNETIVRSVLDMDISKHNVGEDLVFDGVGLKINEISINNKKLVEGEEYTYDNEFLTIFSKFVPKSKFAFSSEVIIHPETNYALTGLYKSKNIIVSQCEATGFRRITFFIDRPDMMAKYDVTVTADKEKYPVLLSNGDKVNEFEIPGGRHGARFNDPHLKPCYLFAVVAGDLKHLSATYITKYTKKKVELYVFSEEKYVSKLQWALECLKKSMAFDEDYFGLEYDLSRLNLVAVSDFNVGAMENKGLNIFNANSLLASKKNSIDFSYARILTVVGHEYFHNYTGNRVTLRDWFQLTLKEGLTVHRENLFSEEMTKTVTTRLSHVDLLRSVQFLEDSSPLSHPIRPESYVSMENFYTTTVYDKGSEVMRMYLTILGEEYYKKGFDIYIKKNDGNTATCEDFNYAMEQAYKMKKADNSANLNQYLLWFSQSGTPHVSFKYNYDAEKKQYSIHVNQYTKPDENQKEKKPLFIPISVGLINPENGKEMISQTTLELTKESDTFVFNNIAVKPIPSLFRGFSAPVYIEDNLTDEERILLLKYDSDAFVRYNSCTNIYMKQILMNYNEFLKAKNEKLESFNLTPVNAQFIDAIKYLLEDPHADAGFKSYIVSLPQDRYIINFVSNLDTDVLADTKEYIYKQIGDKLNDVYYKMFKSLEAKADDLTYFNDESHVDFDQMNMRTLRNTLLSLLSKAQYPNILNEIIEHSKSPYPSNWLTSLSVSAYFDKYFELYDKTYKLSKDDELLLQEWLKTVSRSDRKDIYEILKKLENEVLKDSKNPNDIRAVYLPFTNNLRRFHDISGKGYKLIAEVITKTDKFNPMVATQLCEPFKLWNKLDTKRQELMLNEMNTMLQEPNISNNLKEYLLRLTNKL
# [6] = test system: Streptococcus sp. 'group A'; assay: growth inhibition of control SK(-) GAS strain, dose response, counter-screen for streptokinase expression inhibitor project, luminescence, kanamycin, BacTiterGlo, confirmation (AID 1900); assay type: functional, organism-based
# Streptokinase A = target: T2, Streptokinase A (Streptococcus pyogenes serotype M1, UniProt P10520); assay: S. pyogenes streptokinase expression inhibitors, potency, dose response, plasminogen activation absorbance, OD405 (AID 1914); assay type: functional, Streptococcus pyogenes M1 GAS;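 further: secreted streptokinase activity via plasminogen activation per viability signal from cell pellet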
# T2 sequence (P10520 whole entry): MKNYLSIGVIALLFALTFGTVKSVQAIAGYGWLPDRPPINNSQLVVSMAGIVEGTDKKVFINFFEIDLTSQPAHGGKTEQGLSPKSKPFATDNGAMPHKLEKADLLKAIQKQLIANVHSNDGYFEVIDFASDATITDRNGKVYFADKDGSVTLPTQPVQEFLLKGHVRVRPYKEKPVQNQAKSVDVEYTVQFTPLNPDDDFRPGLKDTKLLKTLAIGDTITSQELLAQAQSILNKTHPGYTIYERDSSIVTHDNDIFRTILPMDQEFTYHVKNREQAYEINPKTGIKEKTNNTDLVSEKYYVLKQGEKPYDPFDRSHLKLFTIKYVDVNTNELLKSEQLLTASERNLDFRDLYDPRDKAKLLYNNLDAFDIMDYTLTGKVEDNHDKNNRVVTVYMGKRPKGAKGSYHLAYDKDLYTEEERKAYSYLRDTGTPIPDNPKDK
# [7] = target: Induced myeloid leukemia cell differentiation protein Mcl-1 (Homo sapiens, UniProt Q07820); assay type: functional
# Streptococcus = assay: Group A Streptococcus viability loss, dose response, counter-screen for streptokinase expression inhibitor project, luminescence, BacTiterGlo (AID 1915); assay type: functional, organism-based;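 further: potency for reduction of bacterial viability or growth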
# [8] = target: Eukaryotic translation initiation factor 4E (Mus musculus, UniProt P63073); assay: eIF4E–eIF4G protein interaction inhibitors, dose response, biochemical, TR-FRET (AID 855); assay type: functional;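 further: potency for disrupting eIF4E binding to eIF4GI seen as loss of FRET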
# Vero [9] = assay: Vero cell cytotoxicity, cytotoxicity control for flavivirus capping enzyme inhibitors (AID 588742); assay type: functional; conditions: Chlorocebus sabaeus
# Genome polyprotein = Genome polyprotein (dengue virus type 2, UniProt P29990); assay: Dengue-2 NS5 methyltransferase inhibitors, primary screen, biochemical, confirmation dose response (AID 588689); assay type: functional
# [10] = target: T3, Small ubiquitin-related modifier 1 (Homo sapiens, UniProt P63165); assay: inhibitors of SUMO1 peptide binding, dose response, biochemical, fluorescence polarization, uHTS hits (AID 624382); assay type: functional; conditions: read-out: IC50_Mean
# [11] = target: T3, Small ubiquitin-related modifier 1; assay: inhibitors of SUMO1 partner interactions, dose response, biochemical, FRET (AID 624383); assay type: functional; conditions: read-out: IC50_Mean
# [12] = target: T4, Endoribonuclease toxin MazF (Escherichia coli K-12, UniProt P0AE70); assay: MazF toxin RNase activators, dose response, biochemical, fluorescence, single-stranded RNA substrate, uHTS hits (AID 588481); assay type: functional
# T4 sequence (P0AE70 whole entry): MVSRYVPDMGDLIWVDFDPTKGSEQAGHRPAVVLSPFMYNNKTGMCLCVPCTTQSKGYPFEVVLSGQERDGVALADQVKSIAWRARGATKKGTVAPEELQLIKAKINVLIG
# [13] = target: T4, Endoribonuclease toxin MazF; assay: fluorescent RNA oligo signal without MazF, dose response, counter-screen for MazEF activator project, biochemical, fluorescence, single-stranded RNase substrate (AID 588502); assay type: functional
# [14] = target: T5, Apoptotic protease-activating factor 1 (Homo sapiens, UniProt O14727); assay type: functional
# T5 sequence (O14727 whole entry): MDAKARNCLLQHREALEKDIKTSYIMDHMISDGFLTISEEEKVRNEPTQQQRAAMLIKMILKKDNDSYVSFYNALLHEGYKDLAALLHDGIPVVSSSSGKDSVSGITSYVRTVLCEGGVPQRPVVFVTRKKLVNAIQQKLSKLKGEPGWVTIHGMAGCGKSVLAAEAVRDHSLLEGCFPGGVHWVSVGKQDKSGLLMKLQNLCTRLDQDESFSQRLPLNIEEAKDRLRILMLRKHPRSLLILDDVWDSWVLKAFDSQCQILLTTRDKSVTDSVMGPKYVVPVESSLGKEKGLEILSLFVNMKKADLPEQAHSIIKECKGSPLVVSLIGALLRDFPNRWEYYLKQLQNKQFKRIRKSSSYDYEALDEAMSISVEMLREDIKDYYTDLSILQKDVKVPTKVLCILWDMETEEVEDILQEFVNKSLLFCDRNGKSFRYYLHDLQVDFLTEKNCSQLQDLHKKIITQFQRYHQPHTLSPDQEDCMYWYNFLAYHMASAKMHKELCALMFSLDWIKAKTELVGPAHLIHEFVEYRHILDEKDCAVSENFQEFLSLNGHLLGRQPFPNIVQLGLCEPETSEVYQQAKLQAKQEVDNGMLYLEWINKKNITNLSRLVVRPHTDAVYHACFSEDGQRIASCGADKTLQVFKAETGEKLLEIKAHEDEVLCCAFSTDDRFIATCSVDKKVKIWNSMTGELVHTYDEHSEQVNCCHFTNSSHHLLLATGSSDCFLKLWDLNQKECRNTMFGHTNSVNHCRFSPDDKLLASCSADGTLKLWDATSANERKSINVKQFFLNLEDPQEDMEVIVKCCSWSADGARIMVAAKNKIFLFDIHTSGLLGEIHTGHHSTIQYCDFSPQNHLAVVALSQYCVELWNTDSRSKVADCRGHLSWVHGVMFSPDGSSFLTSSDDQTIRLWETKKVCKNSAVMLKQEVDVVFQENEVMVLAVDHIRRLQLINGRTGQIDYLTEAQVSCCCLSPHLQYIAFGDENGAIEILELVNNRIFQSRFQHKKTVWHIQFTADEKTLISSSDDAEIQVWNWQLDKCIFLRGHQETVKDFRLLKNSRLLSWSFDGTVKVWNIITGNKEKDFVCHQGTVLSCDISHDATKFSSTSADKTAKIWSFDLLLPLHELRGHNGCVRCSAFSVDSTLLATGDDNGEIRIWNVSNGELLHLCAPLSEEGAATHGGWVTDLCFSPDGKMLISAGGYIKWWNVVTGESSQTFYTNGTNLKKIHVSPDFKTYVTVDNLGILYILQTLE
# INS1 = assay: beta cell apoptosis inhibitors, cytokine rescue, dose response, luminescence, retest (AID 449756); assay type: functional, cell-based; conditions: Rattus norvegicus, INS1;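 further: cell death triggered by IL-1 beta plus TNF-alpha plus IFN-gamma mixture; protective hits raise ATP signal compared with cytokine alone wells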
# Chain of Peroxisome proliferator-activated receptor gamma/Nuclear receptor coactivator 2 (P37231 whole entry): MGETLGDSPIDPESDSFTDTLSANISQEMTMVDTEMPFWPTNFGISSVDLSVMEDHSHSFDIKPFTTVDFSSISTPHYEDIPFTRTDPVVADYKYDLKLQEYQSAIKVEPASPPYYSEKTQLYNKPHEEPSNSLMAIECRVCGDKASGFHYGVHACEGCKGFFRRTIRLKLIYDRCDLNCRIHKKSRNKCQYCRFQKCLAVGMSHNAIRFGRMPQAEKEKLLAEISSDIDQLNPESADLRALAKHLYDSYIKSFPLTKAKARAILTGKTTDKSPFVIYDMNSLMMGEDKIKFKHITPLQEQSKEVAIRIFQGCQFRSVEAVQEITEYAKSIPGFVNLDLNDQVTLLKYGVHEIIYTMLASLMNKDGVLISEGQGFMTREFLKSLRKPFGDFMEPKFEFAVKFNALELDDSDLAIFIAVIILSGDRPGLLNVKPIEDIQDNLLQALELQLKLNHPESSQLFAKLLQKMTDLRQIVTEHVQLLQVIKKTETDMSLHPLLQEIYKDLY
# Chain of Peroxisome proliferator-activated receptor gamma/Nuclear receptor coactivator 2 (Q15596 whole entry, further chain): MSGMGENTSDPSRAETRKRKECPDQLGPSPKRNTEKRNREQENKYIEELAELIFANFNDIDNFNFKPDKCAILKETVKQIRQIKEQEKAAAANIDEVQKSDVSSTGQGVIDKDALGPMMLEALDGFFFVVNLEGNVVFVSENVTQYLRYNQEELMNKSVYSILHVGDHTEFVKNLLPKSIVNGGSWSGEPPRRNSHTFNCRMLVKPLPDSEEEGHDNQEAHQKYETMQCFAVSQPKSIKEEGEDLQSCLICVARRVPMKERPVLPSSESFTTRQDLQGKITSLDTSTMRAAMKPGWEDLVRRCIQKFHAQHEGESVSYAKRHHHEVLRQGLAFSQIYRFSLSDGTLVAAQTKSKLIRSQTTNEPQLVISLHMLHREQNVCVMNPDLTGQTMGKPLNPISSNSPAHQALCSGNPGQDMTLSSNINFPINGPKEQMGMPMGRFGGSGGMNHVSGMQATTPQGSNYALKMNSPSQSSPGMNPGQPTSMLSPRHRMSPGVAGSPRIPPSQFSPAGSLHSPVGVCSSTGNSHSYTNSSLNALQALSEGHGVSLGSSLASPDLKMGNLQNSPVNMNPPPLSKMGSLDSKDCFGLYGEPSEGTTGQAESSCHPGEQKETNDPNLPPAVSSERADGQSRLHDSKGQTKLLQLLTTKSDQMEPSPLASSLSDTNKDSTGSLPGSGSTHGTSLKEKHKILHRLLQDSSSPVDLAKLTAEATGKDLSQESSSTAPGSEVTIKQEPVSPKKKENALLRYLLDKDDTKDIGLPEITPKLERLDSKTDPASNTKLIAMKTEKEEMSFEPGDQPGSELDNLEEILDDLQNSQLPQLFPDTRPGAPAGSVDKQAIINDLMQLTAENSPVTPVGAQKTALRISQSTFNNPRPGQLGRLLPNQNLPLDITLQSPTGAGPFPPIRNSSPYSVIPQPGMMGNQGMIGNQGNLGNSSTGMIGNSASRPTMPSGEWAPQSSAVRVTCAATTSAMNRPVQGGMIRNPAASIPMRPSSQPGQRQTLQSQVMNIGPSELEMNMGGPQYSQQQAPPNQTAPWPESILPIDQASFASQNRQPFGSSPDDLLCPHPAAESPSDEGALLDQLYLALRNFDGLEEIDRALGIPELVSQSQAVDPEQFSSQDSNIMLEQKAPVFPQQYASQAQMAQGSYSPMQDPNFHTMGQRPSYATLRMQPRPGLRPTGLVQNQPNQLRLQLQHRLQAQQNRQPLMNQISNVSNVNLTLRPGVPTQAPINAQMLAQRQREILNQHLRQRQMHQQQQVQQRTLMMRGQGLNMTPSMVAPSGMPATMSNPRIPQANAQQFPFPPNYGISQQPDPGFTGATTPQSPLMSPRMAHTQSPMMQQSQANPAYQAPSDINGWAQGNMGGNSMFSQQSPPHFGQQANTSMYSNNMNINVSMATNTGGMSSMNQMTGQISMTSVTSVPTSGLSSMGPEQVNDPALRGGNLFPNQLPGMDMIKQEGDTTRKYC
# Chain of Peroxisome proliferator-activated receptor gamma/Nuclear receptor coactivator 3 (P37231 whole entry): as the sequence (P37231 whole entry) above
# Chain of Peroxisome proliferator-activated receptor gamma/Nuclear receptor coactivator 3 (Q9Y6Q9 whole entry, further chain): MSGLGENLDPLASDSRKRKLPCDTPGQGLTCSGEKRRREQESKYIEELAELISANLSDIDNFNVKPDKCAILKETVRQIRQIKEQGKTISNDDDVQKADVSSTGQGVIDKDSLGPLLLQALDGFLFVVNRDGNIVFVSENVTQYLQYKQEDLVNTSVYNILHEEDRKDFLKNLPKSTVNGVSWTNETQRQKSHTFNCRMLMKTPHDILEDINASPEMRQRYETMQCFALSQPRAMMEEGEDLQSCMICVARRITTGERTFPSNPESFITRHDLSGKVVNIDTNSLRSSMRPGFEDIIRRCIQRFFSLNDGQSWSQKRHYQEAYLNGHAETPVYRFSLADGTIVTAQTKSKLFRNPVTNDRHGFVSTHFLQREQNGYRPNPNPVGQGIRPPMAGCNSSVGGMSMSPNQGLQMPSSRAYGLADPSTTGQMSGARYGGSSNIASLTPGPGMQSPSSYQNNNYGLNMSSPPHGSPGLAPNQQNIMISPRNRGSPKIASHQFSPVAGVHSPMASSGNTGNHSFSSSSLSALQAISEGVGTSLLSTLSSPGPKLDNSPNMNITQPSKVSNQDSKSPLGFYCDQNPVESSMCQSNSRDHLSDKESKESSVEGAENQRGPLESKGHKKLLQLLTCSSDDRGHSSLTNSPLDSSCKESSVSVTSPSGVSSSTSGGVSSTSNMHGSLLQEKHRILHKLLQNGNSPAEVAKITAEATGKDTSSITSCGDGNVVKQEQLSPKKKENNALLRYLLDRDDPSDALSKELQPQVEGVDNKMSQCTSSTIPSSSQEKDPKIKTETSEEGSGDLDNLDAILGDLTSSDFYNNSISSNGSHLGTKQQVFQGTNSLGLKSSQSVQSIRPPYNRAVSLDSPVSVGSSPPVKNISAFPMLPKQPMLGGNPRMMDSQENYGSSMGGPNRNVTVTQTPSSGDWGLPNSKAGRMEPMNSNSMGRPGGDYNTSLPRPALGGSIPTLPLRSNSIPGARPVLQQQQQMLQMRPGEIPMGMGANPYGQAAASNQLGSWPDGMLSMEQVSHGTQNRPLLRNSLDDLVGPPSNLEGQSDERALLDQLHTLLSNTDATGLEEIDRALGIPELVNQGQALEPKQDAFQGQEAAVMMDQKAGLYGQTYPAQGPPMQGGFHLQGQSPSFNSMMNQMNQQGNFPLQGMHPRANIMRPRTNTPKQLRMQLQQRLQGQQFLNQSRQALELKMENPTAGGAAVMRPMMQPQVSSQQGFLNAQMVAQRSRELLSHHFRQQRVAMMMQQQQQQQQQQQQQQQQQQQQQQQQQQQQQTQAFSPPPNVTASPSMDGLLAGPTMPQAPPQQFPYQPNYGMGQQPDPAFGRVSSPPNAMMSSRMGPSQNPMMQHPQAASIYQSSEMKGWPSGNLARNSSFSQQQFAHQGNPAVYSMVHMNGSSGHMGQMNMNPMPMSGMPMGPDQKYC
# T3 sequence (P63165 whole entry): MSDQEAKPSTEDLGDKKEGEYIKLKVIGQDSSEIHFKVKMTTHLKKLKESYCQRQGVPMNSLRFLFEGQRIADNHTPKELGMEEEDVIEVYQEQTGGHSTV
# Chain of Genome polyprotein (P29990 2492-3391 limits assumed): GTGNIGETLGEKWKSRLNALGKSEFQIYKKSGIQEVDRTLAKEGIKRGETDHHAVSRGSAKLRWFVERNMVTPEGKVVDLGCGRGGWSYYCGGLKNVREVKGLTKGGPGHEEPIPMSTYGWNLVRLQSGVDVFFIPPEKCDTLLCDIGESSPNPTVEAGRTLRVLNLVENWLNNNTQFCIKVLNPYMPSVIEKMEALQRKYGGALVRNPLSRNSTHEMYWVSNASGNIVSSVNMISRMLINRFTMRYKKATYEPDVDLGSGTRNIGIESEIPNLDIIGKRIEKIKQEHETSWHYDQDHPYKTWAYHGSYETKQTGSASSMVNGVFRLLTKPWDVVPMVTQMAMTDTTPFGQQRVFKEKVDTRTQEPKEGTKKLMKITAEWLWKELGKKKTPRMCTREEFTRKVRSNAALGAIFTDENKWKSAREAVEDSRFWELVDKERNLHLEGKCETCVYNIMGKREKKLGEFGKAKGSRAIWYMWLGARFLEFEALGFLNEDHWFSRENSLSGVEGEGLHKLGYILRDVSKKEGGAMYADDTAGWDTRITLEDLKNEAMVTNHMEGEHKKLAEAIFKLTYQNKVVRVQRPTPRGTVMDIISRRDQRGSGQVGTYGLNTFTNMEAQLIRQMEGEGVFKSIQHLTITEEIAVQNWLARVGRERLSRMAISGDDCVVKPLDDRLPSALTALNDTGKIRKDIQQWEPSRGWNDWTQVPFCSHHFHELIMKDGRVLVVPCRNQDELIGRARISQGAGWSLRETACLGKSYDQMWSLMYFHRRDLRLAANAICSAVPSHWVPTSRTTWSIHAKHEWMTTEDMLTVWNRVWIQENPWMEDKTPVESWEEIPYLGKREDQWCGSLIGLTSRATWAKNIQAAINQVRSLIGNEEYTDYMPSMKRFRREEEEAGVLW
smiles,measurement,setting,value
Cc1ccc(N(Cc2ccccc2)C(=O)CSC(C)C(=O)Nc2cc(C)on2)cc1 (configuration not stated),IC50,Vero [1],15.6 µM (active)
same,CC50,Vero [2],23.3 µM (active)
O=c1c(Cl)c(N2CCN(S(=O)(=O)c3ccc(F)cc3)CC2)cnn1-c1cccc(Cl)c1,EC50,[3],9.63 µM (active)
same,EC50,[4],18.7 µM (not active)
same,EC50,[5],9.06 µM (active)
same,AC50,Cytochrome P450 3A4,20 µM (inconclusive)
Nc1nc(=O)c2c([nH]1)NCC(CNc1ccc(C(=O)N[C@@H](CCC(=O)O)C(=O)O)cc1)N2C=O (some centres not stated) [LEUCOVORIN CALCIUM],GI50,P388/ADR,> 124 µM (inactive)
same,GI50,SN12K1,> 125 µM (inactive)
same,GI50,P388,> 125 µM (inactive)
ClCCCN1CCN(CCCl)CC1,GI50,P388/ADR,27 µM (inactive)
same,GI50,SN12K1,109 µM (inactive)
same,GI50,P388,17.7 µM (inactive)
CCN1C(=O)/C(=C\c2ccc(-c3ccc([N+](=O)[O-])cc3OC)o2)S/C1=N\c1cccc(C(=O)O)c1,IC50,Aminopeptidase N,2.2 µM (active)
same,EC50,[6],3.17 µM (active)
same,EC50,Streptokinase A,> 150 µM (not active)
same,IC50,[7],6.7 µM (active)
same,EC50,Streptococcus,8.58 µM (active)
same,IC50,[8],50 µM (inactive)
same,CC50,Vero [9],> 40 µM (active)
same,IC50,Genome polyprotein,64.5 µM (active)
same,IC50,[10],> 66.6 µM (inactive)
same,IC50,[11],25.8 µM (inactive)
CCCn1c(SCC(=O)Nc2nc3ccccc3s2)nc2c1c(=O)n(C)c(=O)n2C,EC50,[12],> 99 µM (inactive)
same,EC50,[13],> 99 µM (inactive)
Cn1ncc(/N=C/c2c(O)ccc3ccccc23)c1C(=O)Nc1cccc(Cl)c1,EC50,[12],26.2 µM (inactive)
same,EC50,[13],94.5 µM (inactive)
CCCCCCCCCCCCCCCCCCOP(=O)([O-])OCC[N+](C)(C)C [OCTADECYLPHOSPHONOCHOLINE],GI50,P388/ADR,11.1 µM (inactive)
same,GI50,SN12K1,13.7 µM (inactive)
same,GI50,P388,3.78 µM (inactive)
CCN1CCN(C2=C(NS(=O)(=O)c3ccccc3)C(=O)c3ccccc3C2=O)CC1,CC50,Vero [9],24.8 µM (active)
same,IC50,[14],19.1 µM (active)
same,AC50,INS1,5.62 µM (active)
CC(C)Sc1oc(-c2ccco2)nc1S(=O)(=O)c1ccccc1,EC50,[3],6.48 µM (active)
same,EC50,[4],> 79.4 µM (not active)
same,EC50,[5],9.32 µM (active)
N#C/C(=C/C1=C(N2CCOCC2)C(=C/c2cccc([N+](=O)[O-])c2)/CC1)C(=O)Nc1ccccc1F,EC50,[12],> 99 µM (inactive)
same,EC50,[13],> 99 µM (inactive)
C=C1C(=O)O[C@@H]2[C@H](O)[C@@H](C)[C@@H]3C=CC(=O)[C@@]3(C)[C@H](OC(=O)C=C(C)C)[C@H]12,GI50,P388/ADR,0.141 µM (active)
same,GI50,SN12K1,0.681 µM (active)
same,GI50,P388,0.194 µM (active)
COc1cccc(-c2ccc(NC(=O)C3CCCN(Cc4cnc(C)n4C)C3)cc2)c1 (configuration not stated),IC50,Vero [1],20.3 µM (active)
same,CC50,Vero [2],> 25 µM (active)
